# Measurements from patent publication US6926905B2, “Liposomak compositions and methods of preparation” (Yissum Research Development Company of the Hebrew …, priority 1998, dated 2005).
# Structures can show the parent of a compound that is named as a salt.
# Tests used:
# [1] = Tissue BUP post-administration: drug remaining at the site of injection (HPLC of excised tissue); format: in vivo; conditions: four hours after injection, mice, subcutaneous
# Experimental: In a separate group of mice, the amount of drug remaining at the site of injection after administration of 0.5% and 3.5% liposomal BUP (formulation 3) or 0.5% free BUP was determined. Three animals were sacrificed at 0, 0.25, 0.5, 1, 2, 4, and 8 hours after injections of all drug formulations and also at 16, 24, 48 and 96 hours after injection of the liposomal formulations. After sacrifice, a 1-cm2 circular tissue section including the entire area of injection, and extending to the peritoneum, was excised. The tissue was homogenized in 1 ml of isopropanol for 1 min, and then centrifuged at 16,000×G (Eppendorf Centrifuge 5417C, Engelsdorf, Germany). The supernatant was diluted 1:100 in isopropanol, and BUP concentration was determined using HPLC. In vivo release kinetics were done in triplicate. Results are presented in FIG. 2, where the absolute amounts remaining are expressed as mean±SD.
# [2] = system: Male Swiss-Webster mice; assay: Analgesic efficacy: sensory block, vocalization response to cutaneous electrical stimulation after subcutaneous injection; format: in vivo; conditions: 8 mice
# Experimental: All experiments were approved by the Institutional Animal Care and Use Committee. Male Swiss-Webster mice weighing 26+3 g (mean+SD) were used. Animals had free access to food and water, and were maintained on 12-hour dark-light cycle. Prior to testing, the hair overlying the abdomen was shaved. Analgesia was assessed using response to cutaneous electrical stimulation. A current generator (model S48, Grass Instruments, Quincy, Mass.) coupled to a constant current unit (model PSIU6F, Grass Instruments, Quincy, Mass.) was used. The current was delivered to the skin surface by touching it gently with two electrodes fashioned from #25 g needles. The vocalization threshold (the current required to produce a vocalization response) was assessed prior to injection of study solutions. […] To determine analgesic duration, mice were injected with liposomal BUP compositions having 0.5 wt % and 3.5 wt % bupivacaine, respectively, formed by dilution (as necessary of formulation 3, above. Free BUP (0.5%), hyperosmotic saline (580 mM), or drug-free liposomes were used as controls. For all groups, […] of test solution was injected subcutaneously using a #25 g needle in 8 mice. After injection, sensory block was assessed at 5, 15, 30 minutes and then at 1, 1.5, 2, 3, 4.5, 6, 9, 12, 14, 16, 17, and 19 hours. Failure to vocalize in response to stimulation with threshold current was taken as analgesia. […]
# [3] = system: Male Swiss-Webster mice; conditions: mouse, in vivo
compound,measurement,setting,value
"CCCCN1CCCCC1C(=O)Nc1c(C)cccc1C (centres unmarked) [0.5% free BUP, Bupivacaine hydrochloride]",amount remaining at the site,[1],8 mg
same,injected dose remaining at the site,[1],1%
same,time at which analgesia was exhibited,[2],30 min
same,time at which analgesia was not detected (regressed in all animals),[2],2 h
same,systemic toxic effects,[3],produced toxicity
